Data as given in ChEMBL document CHEMBL3885881, “DrugMatrix”.

Organism: Rattus norvegicus
Assay: DrugMatrix - Regimen: Daily Repeat
Assay type: toxicity, organism-based, Sprague-Dawley
Design: regimen Daily Repeat, gender Male, age 6-8 weeks
Conditions: in vivo, iv, vehicle 100 % SALINE; for ABSOLUTE BASOPHIL / ABSOLUTE EOSINOPHIL / ABSOLUTE LYMPHOCYTE / ABSOLUTE MONOCYTE / ABSOLUTE SEGMENTED NEUTROPHIL / BASOPHIL / EOSINOPHIL / ERYTHROCYTE COUNT / HEMATOCRIT / HEMOGLOBIN / LEUKOCYTE COUNT / LYMPHOCYTE / MEAN CORPUSCULAR HEMOGLOBIN / MEAN CORPUSCULAR HEMOGLOBIN CONCENTRATION / MEAN CORPUSCULAR VOLUME / MONOCYTE / NEUTROPHIL / NUCLEATED RED BLOOD CELLS / PLATELET COUNT: tissue Blood; for ALANINE AMINOTRANSFERASE / ALBUMIN / ALKALINE PHOSPHATASE / ASPARTATE AMINOTRANSFERASE / BLOOD UREA NITROGEN / CARBON DIOXIDE / CHLORIDE / CHOLESTEROL / CREATINE PHOSPHOKINASE / CREATININE / GLUCOSE / LACTATE DEHYDROGENASE / LIPASE / PHOSPHORUS / POTASSIUM / SODIUM / TOTAL BILIRUBIN / TOTAL PROTEIN / URIC ACID: tissue Plasma
[1] = 0 mg/kg, 72 h, dose level Control, time 3 day
[2] = 0 mg/kg, 120 h, dose level Control, time 5 day
[3] = 0.05 mg/kg, 72 h, dose level Low, time 3 day
[4] = 0.05 mg/kg, 120 h, dose level Low, time 5 day

Structure (SMILES): CC[C@]1(O)C[C@H]2CN(CCc3c([nH]c4ccccc34)[C@@](C(=O)OC)(c3cc4c(cc3OC)N(C=O)[C@H]3[C@@](O)(C(=O)OC)[C@H](OC(C)=O)[C@]5(CC)C=CCN6CC[C@]43[C@@H]65)C2)C1 [VINCRISTINE]
- ABSOLUTE BASOPHIL [1]: 0 CELLS/uL
- ABSOLUTE EOSINOPHIL [1]: 0 CELLS/uL
- ABSOLUTE LYMPHOCYTE [1]: 7637.67 CELLS/uL
- ABSOLUTE MONOCYTE [1]: 67.83 CELLS/uL
- ABSOLUTE SEGMENTED NEUTROPHIL [1]: 661.17 CELLS/uL
- BASOPHIL [1]: 0%
- EOSINOPHIL [1]: 0%
- ERYTHROCYTE COUNT [1]: 5.38 x10E6/uL
- HEMATOCRIT [1]: 33.67%
- HEMOGLOBIN [1]: 12.88 G/DL
- LEUKOCYTE COUNT [1]: 8.37 x10E3/uL
- LYMPHOCYTE [1]: 91.17%
- MEAN CORPUSCULAR HEMOGLOBIN [1]: 23.95 pg
- MEAN CORPUSCULAR HEMOGLOBIN CONCENTRATION [1]: 38.23 G/DL
- MEAN CORPUSCULAR VOLUME [1]: 62.6 fL
- MONOCYTE [1]: 0.83%
- NEUTROPHIL [1]: 8%
- NUCLEATED RED BLOOD CELLS [1]: 0.17 /100WBC
- PLATELET COUNT [1]: 865 x10E3/uL
- ALANINE AMINOTRANSFERASE [1]: 51.67 u/L
- ALBUMIN [1]: 3.97 G/DL
- ALKALINE PHOSPHATASE [1]: 351.17 u/L
- ASPARTATE AMINOTRANSFERASE [1]: 82.33 u/L
- BLOOD UREA NITROGEN [1]: 15.17 mg/dL
- CARBON DIOXIDE [1]: 34.5 mmol/L
- CHLORIDE [1]: 100 MEQ/L
- CHOLESTEROL [1]: 80.33 mg/dL
- CREATINE PHOSPHOKINASE [1]: 316.5 u/L
- CREATININE [1]: 0.17 mg/dL
- GLUCOSE [1]: 149.17 mg/dL
- LACTATE DEHYDROGENASE [1]: 105.67 u/L
- LIPASE [1]: 9.5 u/L
- PHOSPHORUS [1]: 10.87 mg/dL
- POTASSIUM [1]: 5.47 MEQ/L
- SODIUM [1]: 144.2 MEQ/L
- TOTAL BILIRUBIN [1]: 0.2 mg/dL
- TOTAL PROTEIN [1]: 5.83 G/DL
- URIC ACID [1]: 0.83 mg/dL
- ABSOLUTE BASOPHIL [2]: 0 CELLS/uL
- ABSOLUTE EOSINOPHIL [2]: 0 CELLS/uL
- ABSOLUTE LYMPHOCYTE [2]: 6333.5 CELLS/uL
- ABSOLUTE MONOCYTE [2]: 38.83 CELLS/uL
- ABSOLUTE SEGMENTED NEUTROPHIL [2]: 661 CELLS/uL
- BASOPHIL [2]: 0%
- EOSINOPHIL [2]: 0%
- ERYTHROCYTE COUNT [2]: 5.44 x10E6/uL
- HEMATOCRIT [2]: 34.17%
- HEMOGLOBIN [2]: 13.22 G/DL
- LEUKOCYTE COUNT [2]: 7.03 x10E3/uL
- LYMPHOCYTE [2]: 90.17%
- MEAN CORPUSCULAR HEMOGLOBIN [2]: 24.38 pg
- MEAN CORPUSCULAR HEMOGLOBIN CONCENTRATION [2]: 38.7 G/DL
- MEAN CORPUSCULAR VOLUME [2]: 62.95 fL
- MONOCYTE [2]: 0.5%
- NEUTROPHIL [2]: 9.33%
- NUCLEATED RED BLOOD CELLS [2]: 0 /100WBC
- PLATELET COUNT [2]: 924.33 x10E3/uL
- ALANINE AMINOTRANSFERASE [2]: 52.5 u/L
- ALBUMIN [2]: 3.97 G/DL
- ALKALINE PHOSPHATASE [2]: 364.83 u/L
- ASPARTATE AMINOTRANSFERASE [2]: 82.5 u/L
- BLOOD UREA NITROGEN [2]: 17 mg/dL
- CARBON DIOXIDE [2]: 32.33 mmol/L
- CHLORIDE [2]: 99.6 MEQ/L
- CHOLESTEROL [2]: 75.83 mg/dL
- CREATINE PHOSPHOKINASE [2]: 419 u/L
- CREATININE [2]: 0.21 mg/dL
- GLUCOSE [2]: 155 mg/dL
- LACTATE DEHYDROGENASE [2]: 111.5 u/L
- LIPASE [2]: 11.33 u/L
- PHOSPHORUS [2]: 10.32 mg/dL
- POTASSIUM [2]: 5.37 MEQ/L
- SODIUM [2]: 144.64 MEQ/L
- TOTAL BILIRUBIN [2]: 0.18 mg/dL
- TOTAL PROTEIN [2]: 5.98 G/DL
- URIC ACID [2]: 0.62 mg/dL
- ABSOLUTE BASOPHIL [3]: 0 CELLS/uL
- ABSOLUTE EOSINOPHIL [3]: 50 CELLS/uL
- ABSOLUTE LYMPHOCYTE [3]: 6489 CELLS/uL
- ABSOLUTE MONOCYTE [3]: 75.67 CELLS/uL
- ABSOLUTE SEGMENTED NEUTROPHIL [3]: 285.33 CELLS/uL
- BASOPHIL [3]: 0%
- EOSINOPHIL [3]: 0.67%
- ERYTHROCYTE COUNT [3]: 5.18 x10E6/uL
- HEMATOCRIT [3]: 30.77%
- HEMOGLOBIN [3]: 12.07 G/DL
- LEUKOCYTE COUNT [3]: 6.9 x10E3/uL
- LYMPHOCYTE [3]: 94.33%
- MEAN CORPUSCULAR HEMOGLOBIN [3]: 23.3 pg
- MEAN CORPUSCULAR HEMOGLOBIN CONCENTRATION [3]: 39.2 G/DL
- MEAN CORPUSCULAR VOLUME [3]: 59.47 fL
- MONOCYTE [3]: 1%
- NEUTROPHIL [3]: 4%
- NUCLEATED RED BLOOD CELLS [3]: 0.33 /100WBC
- PLATELET COUNT [3]: 1561 x10E3/uL
- ALANINE AMINOTRANSFERASE [3]: 52.67 u/L
- ALBUMIN [3]: 4.03 G/DL
- ALKALINE PHOSPHATASE [3]: 301.33 u/L
- ASPARTATE AMINOTRANSFERASE [3]: 100 u/L
- BLOOD UREA NITROGEN [3]: 13.67 mg/dL
- CARBON DIOXIDE [3]: 35.67 mmol/L
- CHLORIDE [3]: 98 MEQ/L
- CHOLESTEROL [3]: 80.67 mg/dL
- CREATINE PHOSPHOKINASE [3]: 355.67 u/L
- CREATININE [3]: 0.15 mg/dL
- GLUCOSE [3]: 138.33 mg/dL
- LACTATE DEHYDROGENASE [3]: 108.33 u/L
- LIPASE [3]: 9 u/L
- PHOSPHORUS [3]: 10.47 mg/dL
- POTASSIUM [3]: 5.91 MEQ/L
- SODIUM [3]: 142.8 MEQ/L
- TOTAL BILIRUBIN [3]: 0.17 mg/dL
- TOTAL PROTEIN [3]: 6 G/DL
- URIC ACID [3]: 0.5 mg/dL
- ABSOLUTE BASOPHIL [4]: 0 CELLS/uL
- ABSOLUTE EOSINOPHIL [4]: 15.67 CELLS/uL
- ABSOLUTE LYMPHOCYTE [4]: 5856.67 CELLS/uL
- ABSOLUTE MONOCYTE [4]: 77.33 CELLS/uL
- ABSOLUTE SEGMENTED NEUTROPHIL [4]: 217 CELLS/uL
- BASOPHIL [4]: 0%
- EOSINOPHIL [4]: 0.33%
- ERYTHROCYTE COUNT [4]: 4.27 x10E6/uL
- HEMATOCRIT [4]: 27.3%
- HEMOGLOBIN [4]: 10.7 G/DL
- LEUKOCYTE COUNT [4]: 6.17 x10E3/uL
- LYMPHOCYTE [4]: 94%
- MEAN CORPUSCULAR HEMOGLOBIN [4]: 25.1 pg
- MEAN CORPUSCULAR HEMOGLOBIN CONCENTRATION [4]: 39.17 G/DL
- MEAN CORPUSCULAR VOLUME [4]: 64.03 fL
- MONOCYTE [4]: 1.33%
- NEUTROPHIL [4]: 4.33%
- NUCLEATED RED BLOOD CELLS [4]: 0 /100WBC
- PLATELET COUNT [4]: 1370.67 x10E3/uL
- ALANINE AMINOTRANSFERASE [4]: 42 u/L
- ALBUMIN [4]: 3.8 G/DL
- ALKALINE PHOSPHATASE [4]: 313 u/L
- ASPARTATE AMINOTRANSFERASE [4]: 132.33 u/L
- BLOOD UREA NITROGEN [4]: 18.67 mg/dL
- CARBON DIOXIDE [4]: 29.67 mmol/L
- CHLORIDE [4]: 99.67 MEQ/L
- CHOLESTEROL [4]: 65 mg/dL
- CREATINE PHOSPHOKINASE [4]: 254 u/L
- CREATININE [4]: 0.18 mg/dL
- GLUCOSE [4]: 187.33 mg/dL
- LACTATE DEHYDROGENASE [4]: 136.67 u/L
- LIPASE [4]: 9 u/L
- PHOSPHORUS [4]: 10.8 mg/dL
- POTASSIUM [4]: 5.21 MEQ/L
- SODIUM [4]: 143.2 MEQ/L
- TOTAL BILIRUBIN [4]: 0.2 mg/dL
- TOTAL PROTEIN [4]: 5.4 G/DL
- URIC ACID [4]: 0.73 mg/dL
